*1 amine or outer side, *2 acyl side, *3 side chain or, on linkers, in order; H or OH if unused. Where a SMILES comes first, the peptide text is derived from it. [ ]: non-standard residue; d: D form. ξ: configuration not given here. β2hAla(2S) = C[C@@H](CN[*:1])C(=O)[*:2]; X4 = CCCC[C@H](O[*:1])C(=O)[*:2]; ξβ2hAla = CC(CN[*:1])C(=O)[*:2]; hLys = NCCCCC[C@H](N)C(=O)O
Legend:
[1] = target: T1, Relaxin receptor 1 (Homo sapiens) (UniProt Q9HBX9); experiment: Agonist activity at RXFP1 endogenously expressed in human OVCAR-5 cells assessed as increase in IBMX-induced cAMP accumulation pretreated with IBMX for 40 mins followed by compound addition and measured after 30 mins by HTRF assay relative to relaxin; format: functional, cell-based; conditions: filed as agonist
T1 sequence (whole entry): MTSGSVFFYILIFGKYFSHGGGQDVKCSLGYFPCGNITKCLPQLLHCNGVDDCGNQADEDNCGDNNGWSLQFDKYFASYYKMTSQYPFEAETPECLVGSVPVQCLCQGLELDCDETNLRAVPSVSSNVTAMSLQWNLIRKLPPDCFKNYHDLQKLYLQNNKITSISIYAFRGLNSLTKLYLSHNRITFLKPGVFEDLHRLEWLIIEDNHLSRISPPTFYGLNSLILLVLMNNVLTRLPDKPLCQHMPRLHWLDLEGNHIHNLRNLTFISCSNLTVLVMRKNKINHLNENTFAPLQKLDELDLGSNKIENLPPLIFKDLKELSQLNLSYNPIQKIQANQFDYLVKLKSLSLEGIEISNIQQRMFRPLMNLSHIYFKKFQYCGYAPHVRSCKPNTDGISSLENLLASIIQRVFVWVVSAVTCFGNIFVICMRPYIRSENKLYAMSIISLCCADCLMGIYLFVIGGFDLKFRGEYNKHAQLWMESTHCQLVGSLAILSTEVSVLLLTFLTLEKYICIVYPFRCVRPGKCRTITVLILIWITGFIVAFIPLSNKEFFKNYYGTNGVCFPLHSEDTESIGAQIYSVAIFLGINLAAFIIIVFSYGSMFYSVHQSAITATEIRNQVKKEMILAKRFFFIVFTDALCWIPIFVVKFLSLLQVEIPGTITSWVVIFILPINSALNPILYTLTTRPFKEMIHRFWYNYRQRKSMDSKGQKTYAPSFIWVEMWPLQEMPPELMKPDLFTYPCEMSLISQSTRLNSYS

[2] = target: T2, Relaxin receptor 1 (Homo sapiens, UniProt Q9HBX9); experiment: Agonist activity at RXFP1 endogenously expressed in human OVCAR-5 cells assessed as increase in IBMX-induced cAMP accumulation pretreated with IBMX for 40 mins followed by compound addition and measured after 30 mins by HTRF assay; format: functional, cell-based
T2 sequence (Q9HBX9 whole entry): T1 sequence (whole entry)

Row | Compound | Emax [1] [%] | EC50 [2] [nM]
1 | CC[C@H](C)[C@H](NC(=O)C(C)CNC(=O)[C@H](NC(=O)[C@H](CCC(N)=O)NC(=O)[C@H](C)NC(=O)[C@H](CCCNC(=N)N)NC(=O)[C@@H](NC(=O)[C@H](CCCCN)NC(=O)[C@H](CCC(=O)O)NC(=O)[C@H](CCCNC(=N)N)NC(=O)CNC(=O)[C@H](CCC(=O)O)NC(=O)[C@H](CC(C)C)NC(C)=O)C(C)C)[C@@H](C)CC)C(=O)N[C@@H](CCC(=O)O)C(=O)NCC(=O)N[C@@H](CCSC)C(=O)N[C@@H](CO)C(=O)N[C@@H](CCCCN)C(=O)N[C@@H](Cc1c[nH]c2ccccc12)C(=O)N[C@@H](CO)C(=O)N[C@@H](CCCCN)C(=O)N[C@@H](CCCNC(=N)N)C(=O)N[C@@H](CCCCN)C(=O)N[C@@H](CCCCN)C(N)=O (some centres undefined) | 91 | 43
2 | CC[C@H](C)[C@H](NC(=O)[C@H](CCC(N)=O)NC(=O)[C@H](C)NC(=O)[C@H](CCCNC(=N)N)NC(=O)[C@@H](NC(=O)[C@H](CCCCN)NC(=O)[C@H](CCC(=O)O)NC(=O)[C@H](CCCNC(=N)N)NC(=O)CNC(=O)[C@H](CCC(=O)O)NC(=O)[C@H](CC(C)C)NC(=O)[C@H](CCCCN)NC(=O)[C@@H](NC(=O)[C@@H](NC(=O)[C@H](CCC(=O)O)NC(=O)[C@H](CCC(=O)O)NC(C)=O)C(C)C)[C@@H](C)CC)C(C)C)C(=O)NCC(C)C(=O)NCC(C)C(=O)N[C@@H](CCC(=O)O)C(=O)NCC(=O)N[C@@H](CCSC)C(=O)N[C@@H](CO)C(=O)N[C@@H](CCCCN)C(=O)N[C@@H](Cc1c[nH]c2ccccc12)C(=O)N[C@@H](CO)C(=O)NC[C@H](C)C(=O)N[C@@H](CCCNC(=N)N)C(=O)N[C@@H](CCCCN)C(=O)N[C@@H](CCCCN)C(=O)O (stereo partly drawn) (Ac-EEVIKLEGREKVRAQI[ξβ2hAla][ξβ2hAla]EGMSKWS[β2hAla(2S)]RKK-OH) | 95 | 17
3 | CCCC[C@H](OC(=O)CNC(=O)[C@H](CCC(=O)O)NC(=O)[C@@H](C)CNC(=O)[C@@H](NC(=O)[C@H](CCC(N)=O)NC(=O)[C@H](C)NC(=O)[C@H](CCCNC(=N)N)NC(=O)[C@@H](NC(=O)[C@H](CCCCN)NC(=O)[C@H](CCC(=O)O)NC(=O)[C@H](CCCNC(=N)N)NC(=O)CNC(=O)[C@H](CCC(=O)O)NC(=O)[C@H](CC(C)C)NC(C)=O)C(C)C)[C@@H](C)CC)C(=O)N[C@@H](CO)C(=O)N[C@H](C(=O)N[C@@H](Cc1c[nH]c2ccccc12)C(=O)N[C@@H](CO)C(=O)NC[C@H](C)C(=O)N[C@@H](CCCNC(=N)N)C(=O)N[C@@H](CCCCN)C(=O)N[C@@H](CCCCN)C(=O)N[C@@H](CCCCCNC(C)=O)C(N)=O)[C@@H](C)O (Ac-LEGREKVRAQI[β2hAla(2S)]EG[X4]STWS[β2hAla(2S)]RKK[hLys](Ac)-NH2) | 96 | 32
4 | CC[C@H](C)[C@H](NC(=O)[C@H](CCC(N)=O)NC(=O)[C@H](C)NC(=O)[C@H](CCCNC(=N)N)NC(=O)[C@@H](NC(=O)[C@H](CCCCN)NC(=O)[C@H](CCC(=O)O)NC(=O)[C@H](CCCNC(=N)N)NC(=O)CNC(=O)[C@H](CCC(=O)O)NC(=O)[C@H](CC(C)C)NC(=O)[C@H](CCCCN)NC(=O)[C@@H](NC(=O)[C@@H](NC(=O)[C@H](CCC(=O)O)NC(=O)[C@H](CCC(=O)O)NC(C)=O)C(C)C)[C@@H](C)CC)C(C)C)C(=O)NC[C@H](C)C(=O)N[C@H](C(=O)N[C@@H](CCC(=O)O)C(=O)NCC(=O)N[C@@H](CCSC)C(=O)N[C@@H](CO)C(=O)N[C@@H](CCCCN)C(=O)N[C@@H](Cc1c[nH]c2ccccc12)C(=O)N[C@@H](CO)C(=O)N[C@@H](CCCCN)C(=O)N[C@@H](CCCNC(=N)N)C(=O)N[C@@H](CCCCN)C(=O)N[C@@H](CCCCN)C(N)=O)[C@@H](C)CC (HELM PEPTIDE1{[ac].E.E.V.I.K.L.E.G.R.E.K.V.R.A.Q.I.[C[C@@H](CN[*:1])C(=O)[*:2]].I.E.G.M.S.K.W.S.K.R.K.K.[am]}$$$$V2.0) | 97 | 45
5 | CC[C@H](C)[C@H](NC(=O)[C@H](CCC(N)=O)NC(=O)[C@H](C)NC(=O)[C@H](CCCNC(=N)N)NC(=O)[C@@H](NC(=O)[C@H](CC(C)C)NC(=O)[C@H](CCC(=O)O)NC(=O)[C@H](CCCNC(=N)N)NC(=O)CNC(=O)[C@H](CO)NC(=O)[C@H](CC(C)C)NC(=O)[C@H](CCCCN)NC(=O)[C@@H](NC(=O)[C@@H](NC(=O)[C@H](CCC(=O)O)NC(=O)[C@H](CCC(=O)O)NC(C)=O)C(C)C)[C@@H](C)CC)C(C)C)C(=O)N[C@@H](C)C(=O)NC[C@H](C)C(=O)N[C@@H](CO)C(=O)NCC(=O)N[C@@H](CCSC)C(=O)N[C@@H](CO)C(=O)N[C@H](C(=O)N[C@@H](Cc1c[nH]c2ccccc12)C(=O)N[C@@H](CO)C(=O)N[C@@H](CCCCN)C(=O)N[C@@H](CCCNC(=N)N)C(=O)N[C@@H](CCCCN)C(=O)N[C@@H](CCCCN)C(=O)O)[C@@H](C)O (HELM PEPTIDE1{[ac].E.E.V.I.K.L.S.G.R.E.L.V.R.A.Q.I.A.[C[C@@H](CN[*:1])C(=O)[*:2]].S.G.M.S.T.W.S.K.R.K.K}$$$$V2.0) | 95 | 32

Second part, the compound after the results:

Row | Emax [1] [%] | EC50 [2] [nM] | Compound
6 | 95 | 45 | CCCC[C@H](OC(=O)CNC(=O)[C@H](CCC(=O)O)NC(=O)[C@@H](C)CNC(=O)[C@@H](C)CNC(=O)[C@@H](NC(=O)[C@H](CCCCCNC(C)=O)NC(=O)[C@@H](C)CNC(=O)[C@@H](C)CNC(=O)[C@H](CCCCN)NC(=O)[C@H](C)NC(=O)[C@H](CCCNC(=N)N)NC(=O)[C@@H](NC(=O)[C@H](CCCCN)NC(=O)[C@H](CCC(=O)O)NC(=O)[C@H](CCCNC(=N)N)NC(=O)CNC(=O)[C@H](CCC(=O)O)NC(=O)[C@H](CC(C)C)NC(C)=O)C(C)C)[C@@H](C)CC)C(=O)N[C@@H](CO)C(=O)N[C@H](C(=O)N[C@@H](Cc1c[nH]c2ccccc12)C(=O)N[C@@H](CO)C(=O)NC[C@H](C)C(=O)N[C@@H](CCCNC(=N)N)C(=O)N[C@@H](CCCCN)C(=O)N[C@@H](CCCCN)C(N)=O)[C@@H](C)O (Ac-LEGREKVRAK[β2hAla(2S)][β2hAla(2S)][hLys](Ac)I[β2hAla(2S)][β2hAla(2S)]EG[X4]STWS[β2hAla(2S)]RKK-NH2)
7 | 99 | 19.5 | CC[C@H](C)[C@H](NC(=O)[C@H](CCC(N)=O)NC(=O)[C@H](C)NC(=O)[C@H](CCCNC(=N)N)NC(=O)[C@@H](NC(=O)[C@H](CCCCN)NC(=O)[C@H](CCC(=O)O)NC(=O)[C@H](CCCNC(=N)N)NC(=O)CNC(=O)[C@H](CCC(=O)O)NC(=O)[C@H](CC(C)C)NC(=O)[C@H](CCCCN)NC(=O)[C@@H](NC(=O)[C@@H](NC(C)=O)C(C)C)[C@@H](C)CC)C(C)C)C(=O)NC[C@H](C)C(=O)NC[C@H](C)C(=O)N[C@@H](CCC(=O)O)C(=O)NCC(=O)N[C@@H](CCSC)C(=O)N[C@@H](CO)C(=O)N[C@@H](CCCCN)C(=O)N[C@@H](Cc1c[nH]c2ccccc12)C(=O)N[C@@H](CO)C(=O)NC[C@H](C)C(=O)N[C@@H](CCCNC(=N)N)C(=O)N[C@@H](CCCCN)C(=O)N[C@@H](CCCCN)C(N)=O (Ac-VIKLEGREKVRAQI[β2hAla(2S)][β2hAla(2S)]EGMSKWS[β2hAla(2S)]RKK-NH2)
8 | 98 | 124 | CC[C@H](C)[C@H](NC(=O)[C@H](CCC(N)=O)NC(=O)[C@H](C)NC(=O)[C@H](CCCNC(=N)N)NC(=O)[C@@H](NC(=O)[C@H](CCCCN)NC(=O)[C@H](CCC(=O)O)NC(=O)[C@H](CCCNC(=N)N)NC(=O)CNC(=O)[C@H](CCC(=O)O)NC(=O)[C@H](CC(C)C)NC(=O)[C@H](CCCCN)NC(=O)[C@@H](NC(=O)[C@@H](NC(=O)[C@H](CCC(=O)O)NC(=O)[C@H](CCC(=O)O)NC(C)=O)C(C)C)[C@@H](C)CC)C(C)C)C(=O)NC[C@H](C)C(=O)N[C@H](C(=O)N[C@@H](CO)C(=O)NCC(=O)N[C@@H](CCSC)C(=O)N[C@@H](CO)C(=O)N[C@H](C(=O)N[C@@H](Cc1c[nH]c2ccccc12)C(=O)N[C@@H](CO)C(=O)N[C@@H](CCCCN)C(=O)N[C@@H](CCCNC(=N)N)C(=O)N[C@@H](CCCCN)C(=O)N[C@@H](CCCCN)C(N)=O)[C@@H](C)O)[C@@H](C)CC (HELM PEPTIDE1{[ac].E.E.V.I.K.L.E.G.R.E.K.V.R.A.Q.I.[C[C@@H](CN[*:1])C(=O)[*:2]].I.S.G.M.S.T.W.S.K.R.K.K.[am]}$$$$V2.0)
9 | 91 | 200 | CC[C@H](C)[C@H](NC(=O)[C@H](CCC(N)=O)NC(=O)[C@H](C)NC(=O)[C@H](CCCNC(=N)N)NC(=O)[C@@H](NC(=O)[C@H](CC(C)C)NC(=O)[C@H](CCC(=O)O)NC(=O)[C@H](CCCNC(=N)N)NC(=O)CNC(=O)[C@H](CO)NC(=O)[C@H](CC(C)C)NC(=O)[C@H](CCCCN)NC(=O)[C@@H](NC(=O)[C@@H](NC(=O)[C@H](CCC(=O)O)NC(=O)[C@H](CCC(=O)O)NC(C)=O)C(C)C)[C@@H](C)CC)C(C)C)C(=O)N[C@@H](C)C(=O)NC[C@H](C)C(=O)N[C@@H](CO)C(=O)NCC(=O)N[C@@H](CCSC)C(=O)N[C@@H](CO)C(=O)N[C@H](C(=O)N[C@@H](Cc1c[nH]c2ccccc12)C(=O)N[C@@H](CO)C(=O)N[C@@H](CCCCN)C(=O)N[C@@H](CCCNC(=N)N)C(=O)N[C@@H](CO)C(=O)N[C@@H](CC(C)C)C(N)=O)[C@@H](C)O (HELM PEPTIDE1{[ac].E.E.V.I.K.L.S.G.R.E.L.V.R.A.Q.I.A.[C[C@@H](CN[*:1])C(=O)[*:2]].S.G.M.S.T.W.S.K.R.S.L.[am]}$$$$V2.0)
10 | 70 |  | Ac-VIKLSGRELVRAQIAISGMSTWSKRSL-NH2

From ChEMBL document CHEMBL4732190, “Identification of Potent and Long-Acting Single-Chain Peptide Mimetics of Human Relaxin-2 for Cardiovascular Diseases” (J Med Chem, 2021)
